# Source: PubChem BioAssay (NCI)
#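 At the GI50, growth is halved. TGI is the concentration that stops growth completely.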
# Columns and labels:
# Test in all cases: DTP human tumour cell line panel, 384-well format
# [1] = test system: HCT-15 colon
# [2] = test system: BT-549 breast
# [3] = test system: TK-10 renal
# [4] = test system: MDA-MB-435 melanoma
# [5] = test system: A549 NSCLC
# [6] = test system: HL-60(TB) leukemia
# [7] = test system: SK-OV-3 ovarian
# [8] = test system: SN12C renal
# [9] = test system: MDA-MB-468 breast
# [10] = test system: PC-3 prostate
# [11] = test system: OVCAR-4 ovarian
# [12] = test system: MDA-MB-231 breast
# [13] = test system: HT29 colon
# [14] = test system: EKVX NSCLC
# [15] = test system: IGROV1 ovarian
# [16] = test system: DU-145 prostate
# [17] = test system: SF-539 CNS
# [18] = test system: SF-268 CNS
# [19] = test system: SF-295 CNS
# [20] = test system: ACHN renal
# [21] = test system: CAKI-1 renal
# [22] = test system: A498 renal
# [23] = test system: NCI-H460 NSCLC
# [24] = test system: SK-MEL-28 melanoma
# [25] = test system: NCI-H322M lung
# [26] = test system: MOLT-4 leukemia
# [27] = test system: M14 melanoma
# [28] = test system: SW-620 colon
# [29] = test system: SK-MEL-2 melanoma
# [30] = test system: T-47D breast
# [31] = test system: HOP-92 NSCLC
# [32] = test system: 786-0 renal
# [33] = test system: SK-MEL-5 melanoma
# [34] = test system: OVCAR-5 ovarian
# [35] = test system: MALME-3M melanoma
# [36] = test system: HOP-62 NSCLC
# [37] = test system: OVCAR-8 ovarian
# [38] = test system: NCI-H522 lung
# [39] = test system: SR leukemia
# [40] = test system: RPMI-8226 leukemia
# [41] = test system: COLO 205 colon
# [42] = test system: UACC-257 melanoma
# [43] = test system: NCI/ADR-RES ovarian
# [44] = test system: SNB-75 CNS
# [45] = test system: HS 578T breast
# [46] = test system: MCF7 breast
# [47] = test system: KM12 colon
# [48] = test system: SNB-19 CNS
# [49] = test system: NCI-H23 lung
# [50] = test system: HCC-2998 colon
# [51] = test system: OVCAR-3 ovarian
# [52] = test system: U251 glioblastoma
# [53] = test system: RXF 393 renal
# [54] = test system: NCI-H226 lung
# [55] = test system: UACC-62 melanoma
# [56] = test system: UO-31 renal
# [57] = test system: K-562 leukemia
# [58] = test system: HCT-116 colon
structure (smiles),measurement,setting,value
CC(C)n1nc(-c2cc3cc(O)ccc3[nH]2)c2c(N)ncnc21,GI50,[1],0.605 µM
same,TGI,[1],11.9 µM
same,GI50,[2],0.6 µM
same,TGI,[2],2.31 µM
same,GI50,[3],0.327 µM
same,TGI,[3],1.81 µM
same,GI50,[4],0.714 µM
same,TGI,[4],3.3 µM
same,GI50,[5],0.415 µM
same,TGI,[5],2.37 µM
same,GI50,[6],1.76 µM
same,TGI,[6],3.99 µM
same,GI50,[7],0.208 µM
same,TGI,[7],0.652 µM
same,GI50,[8],0.382 µM
same,TGI,[8],4.19 µM
same,GI50,[9],0.201 µM
same,TGI,[9],0.79 µM
same,GI50,[10],0.241 µM
same,TGI,[10],1.25 µM
same,GI50,[11],0.631 µM
same,TGI,[11],2.82 µM
same,GI50,[12],0.338 µM
same,TGI,[12],3.41 µM
same,GI50,[13],1.18 µM
same,TGI,[13],8.43 µM
same,GI50,[14],0.546 µM
same,TGI,[14],3.05 µM
same,GI50,[15],0.205 µM
same,TGI,[15],0.642 µM
same,GI50,[16],1.34 µM
same,TGI,[16],11 µM
same,GI50,[17],1.03 µM
same,TGI,[17],2.94 µM
same,GI50,[18],1.84 µM
same,TGI,[18],5.93 µM
same,GI50,[19],1.01 µM
same,TGI,[19],3.8 µM
same,GI50,[20],0.77 µM
same,TGI,[20],2.64 µM
same,GI50,[21],0.328 µM
same,TGI,[21],1.81 µM
same,GI50,[22],0.119 µM
same,TGI,[22],0.764 µM
same,GI50,[23],0.147 µM
same,TGI,[23],1.4 µM
same,GI50,[24],0.315 µM
same,TGI,[24],1.02 µM
same,GI50,[25],0.391 µM
same,TGI,[25],3.2 µM
same,GI50,[26],0.329 µM
same,TGI,[26],1.62 µM
same,GI50,[27],0.354 µM
same,TGI,[27],2.01 µM
same,GI50,[28],4.2 µM
same,TGI,[28],14.6 µM
same,GI50,[29],0.718 µM
same,TGI,[29],1.8 µM
same,GI50,[30],0.107 µM
same,TGI,[30],0.48 µM
same,GI50,[31],0.345 µM
same,TGI,[31],1.62 µM
same,GI50,[32],1.23 µM
same,TGI,[32],3.94 µM
same,GI50,[33],0.246 µM
same,TGI,[33],1.06 µM
same,GI50,[34],0.421 µM
same,TGI,[34],3.58 µM
same,GI50,[35],0.0416 µM
same,TGI,[35],0.271 µM
same,GI50,[36],0.395 µM
same,TGI,[36],1.95 µM
same,GI50,[37],0.988 µM
same,TGI,[37],5.5 µM
same,GI50,[38],0.104 µM
same,TGI,[38],0.701 µM
same,GI50,[39],0.285 µM
same,TGI,[39],0.768 µM
same,GI50,[40],0.0916 µM
same,TGI,[40],0.236 µM
same,GI50,[41],0.348 µM
same,TGI,[41],1.18 µM
same,GI50,[42],1.14 µM
same,TGI,[42],5.39 µM
same,GI50,[43],0.511 µM
same,TGI,[43],2.2 µM
same,GI50,[44],0.265 µM
same,TGI,[44],1.56 µM
same,GI50,[45],0.221 µM
same,TGI,[45],0.808 µM
same,GI50,[46],0.229 µM
same,TGI,[46],7.96 µM
same,GI50,[47],0.448 µM
same,TGI,[47],6.43 µM
same,GI50,[48],2.87 µM
same,TGI,[48],12.1 µM
same,GI50,[49],0.952 µM
same,TGI,[49],3.22 µM
same,GI50,[50],1.38 µM
same,TGI,[50],10.5 µM
same,GI50,[51],0.514 µM
same,TGI,[51],4.94 µM
same,GI50,[52],1.89 µM
same,TGI,[52],6.01 µM
same,GI50,[53],0.372 µM
same,TGI,[53],1.61 µM
same,GI50,[54],0.374 µM
same,TGI,[54],1.29 µM
same,GI50,[55],0.507 µM
same,TGI,[55],2.08 µM
CCOC(=O)[C@@H](N)CCC(=O)N[C@@H](CSCc1ccccc1)C(=O)N[C@@H](C(=O)OCC)c1ccccc1,GI50,[1],20.1 µM
same,TGI,[1],40.8 µM
same,GI50,[2],17.5 µM
same,TGI,[2],31.3 µM
same,GI50,[3],14.5 µM
same,TGI,[3],27.9 µM
same,GI50,[4],17.3 µM
same,TGI,[4],31.2 µM
same,GI50,[5],25.3 µM
same,TGI,[5],> 100 µM
same,GI50,[6],18.5 µM
same,TGI,[6],32.6 µM
same,GI50,[7],13.9 µM
same,TGI,[7],26.9 µM
same,GI50,[8],15 µM
same,TGI,[8],28.3 µM
same,GI50,[9],5.45 µM
same,TGI,[9],17.2 µM
same,GI50,[10],14.8 µM
same,TGI,[10],28.1 µM
same,GI50,[11],16 µM
same,TGI,[11],31.4 µM
same,GI50,[12],11.9 µM
same,TGI,[12],24.2 µM
same,GI50,[13],8.24 µM
same,TGI,[13],20.7 µM
same,GI50,[14],20.4 µM
same,TGI,[14],43.6 µM
same,GI50,[15],13 µM
same,TGI,[15],25.9 µM
same,GI50,[16],19.2 µM
same,TGI,[16],45.3 µM
same,GI50,[17],12.5 µM
same,TGI,[17],25.1 µM
same,GI50,[18],10.5 µM
same,TGI,[18],22.4 µM
same,GI50,[19],13.1 µM
same,TGI,[19],26.1 µM
same,GI50,[20],8.55 µM
same,TGI,[20],20.9 µM
same,GI50,[21],8.03 µM
same,TGI,[21],20.4 µM
same,GI50,[22],11.6 µM
same,TGI,[22],24.1 µM
same,GI50,[23],7.59 µM
same,TGI,[23],20.1 µM
same,GI50,[24],16.5 µM
same,TGI,[24],30.1 µM
same,GI50,[56],38.6 µM
same,TGI,[56],> 100 µM
same,GI50,[25],18.1 µM
same,TGI,[25],60 µM
same,GI50,[26],2.01 µM
same,TGI,[26],3.57 µM
same,GI50,[27],16.8 µM
same,TGI,[27],30.4 µM
same,GI50,[28],9.33 µM
same,TGI,[28],21.4 µM
same,GI50,[29],15.5 µM
same,TGI,[29],29 µM
same,GI50,[30],15.5 µM
same,TGI,[30],29 µM
same,GI50,[31],10.4 µM
same,TGI,[31],22.2 µM
same,GI50,[32],12.3 µM
same,TGI,[32],24.8 µM
same,GI50,[33],15.3 µM
same,TGI,[33],29 µM
same,GI50,[57],10.6 µM
same,TGI,[57],22.7 µM
same,GI50,[34],32.3 µM
same,TGI,[34],> 100 µM
same,GI50,[35],16.4 µM
same,TGI,[35],30.1 µM
same,GI50,[36],9.1 µM
same,TGI,[36],24 µM
same,GI50,[58],5.21 µM
same,TGI,[58],17 µM
same,GI50,[37],10.8 µM
same,TGI,[37],22.8 µM
same,GI50,[38],14.4 µM
same,TGI,[38],27.6 µM
same,GI50,[39],1.82 µM
same,TGI,[39],3.43 µM
same,GI50,[41],11.5 µM
same,TGI,[41],23.8 µM
same,GI50,[42],16.9 µM
same,TGI,[42],30.6 µM
same,GI50,[44],12.2 µM
same,TGI,[44],24.7 µM
same,GI50,[45],15.3 µM
same,TGI,[45],28.6 µM
same,GI50,[46],5.51 µM
same,TGI,[46],19 µM
same,GI50,[47],6.17 µM
same,TGI,[47],18.5 µM
same,GI50,[48],15.7 µM
same,TGI,[48],30.3 µM
same,GI50,[49],16.2 µM
same,TGI,[49],32.5 µM
same,GI50,[51],13.5 µM
same,TGI,[51],26.4 µM
same,GI50,[52],11.2 µM
same,TGI,[52],23.5 µM
same,GI50,[53],10.8 µM
same,TGI,[53],22.7 µM
same,GI50,[54],11.8 µM
same,TGI,[54],25.6 µM
same,GI50,[55],10.5 µM
same,TGI,[55],22.4 µM
